According to patent US6964975B2, “Isoxazole and thiazole compounds and use thereof as medicine” (Kirin Beer Kabushiki Kaisha, priority 2000, dated 2005):

Molecular target: T1, human EDG-2 (Homo sapiens, UniProt Q92633)
T1 construct: cDNA of the cloned human EDG-2 was introduced into pEFneo, which is an animal expression vector; expressed in transfected cells; host or cells: HepG2
Assay: Inhibitory activity on LPA-induced elevation of intracellular Ca2+ level
Type: cell-based
Details: 50% inhibition of elevation of intracellular Ca2+ level by LPA, human EDG-2/HepG2 cells, fura-2
From the text: The human EDG-2 expression plasmid was introduced into HepG2 cells by electroporation. After the introduction, culturing was continued while exchanging selective media every 3 to 4 days, thereby obtaining an expressed colony. Regarding these cells, Ca-influx and cell-proliferation by LPA, level of [^3H] LPA binding and the like were inspected to select a cell line which highly expresses human EDG-2 (human EDG-2/HepG2).
Human EDG-2/HepG2 cells were washed and then suspended in 0.1% BSA (bovine serum albumin)-containing HEPES buffer. A fluorescent indicator, fura-2/AM (Wako Pure Chemical Industries, Ltd.), was added, and the mixture was shaken at room temperature for 45 minutes so that the indicator is included in the cell. Cells were washed again and then suspended in 0.1% BSA-containing HEPES buffer, and intracellular Ca^2+ level was assayed using FDSS2000 (Hamamatsu Photonics). […] Each test compound was added to the cell suspension followed by the addition of LPA, thereby examining the inhibitory activity of the test compound on the function of LPA for elevating the intracellular Ca level. […] The lower the IC50 value, the higher the antagonistic activity on the LPA receptor.

T1 sequence (Q92633 whole entry): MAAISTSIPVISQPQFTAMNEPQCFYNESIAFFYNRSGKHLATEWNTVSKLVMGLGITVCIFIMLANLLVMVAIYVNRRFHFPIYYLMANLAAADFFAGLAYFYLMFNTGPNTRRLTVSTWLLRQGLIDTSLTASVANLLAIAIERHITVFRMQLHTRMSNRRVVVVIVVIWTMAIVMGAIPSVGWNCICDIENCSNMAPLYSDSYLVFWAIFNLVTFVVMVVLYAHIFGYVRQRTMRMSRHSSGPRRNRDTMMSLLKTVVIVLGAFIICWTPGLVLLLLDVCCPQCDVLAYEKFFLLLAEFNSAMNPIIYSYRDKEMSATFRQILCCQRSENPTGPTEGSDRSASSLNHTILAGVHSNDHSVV

Row | Structure (SMILES) | IC50
1 | Cc1noc(-c2ccc(COCc3ccco3)cc2)c1NC(=O)OC(C)c1ccccc1Cl (stereo not shown) [Compound 84, 1-(2-Chlorophenyl)ethyl N-(5-[4-[(2-furylmethoxy)methyl]phenyl]-3-methyl-4-isoxazolyl)carbamate] | 3 to 10 µM
2 | Cc1noc(-c2ccsc2)c1NC(=O)OC(C)c1ccccc1Cl (stereo not shown) [Compound 75, 1-(2-Chlorophenyl)ethyl N-[3-methyl-5-(3-thienyl)-4-isoxazolyl]carbamate] | 3 to 10 µM
3 | Cc1noc(-c2cccc([N+](=O)[O-])c2)c1NC(=O)OC(C)c1ccccc1Cl (stereo not shown) [Compound 59, 1-(2-Chlorophenyl)ethyl N-[3-methyl-5-(3-nitrophenyl)-4-isoxazolyl]carbamate] | 3 to 10 µM
4 | Cc1ccc(-c2onc(C)c2NC(=O)OC(C)c2ccccc2Cl)s1 (stereo not shown) [Compound 69, 1-(2-Chlorophenyl)ethyl N-[3-methyl-5-(5-methyl-2-thienyl)-4-isoxazolyl]carbamate] | 3 to 10 µM
5 | Cc1noc(-c2ccc(OC(F)(F)F)cc2)c1NC(=O)OC(C)c1ccccc1F (stereo not shown) [Compound 45, 1-(2-Fluorophenyl)ethyl N-[3-methyl-5-[4-(trifluoromethoxy)phenyl]-4-isoxazolyl]carbamate] | 3 µM
6 | Cc1onc(-c2ccccc2)c1NC(=O)OC(C)c1ccccc1F (stereo not shown) [Compound 19, 1-(2-Fluorophenyl)ethyl N-(5-methyl-3-phenyl-4-isoxazolyl)carbamate] | 3 to 10 µM
7 | Cc1noc(-c2ccc(COCc3c(F)cccc3F)cc2)c1NC(=O)OC(C)c1ccccc1Cl (stereo not shown) [Compound 83, 1-(2-Chlorophenyl)ethyl N-[5-(4-[[(2,6-difluorobenzyl)oxy]methyl]phenyl)-3-methyl-4-isoxazolyl]carbamate] | 10 µM
8 | Cc1onc(-c2ccccc2)c1NC(=O)OCCc1ccccc1 [Compound 96, Phenethyl N-(5-methyl-3-phenyl-4-isoxazolyl)carbamate] | 30 to 100 µM
9 | Cc1noc(-c2cccc(Cl)c2)c1NC(=O)OC(C)c1ccccc1Cl (stereo not shown) [Compound 39, 1-(2-Chlorophenyl)ethyl N-[5-(3-chlorophenyl)-3-methyl-4-isoxazolyl]carbamate] | 10 µM
10 | Cc1noc(-c2ccc(C#N)cc2)c1NC(=O)OC(C)c1ccccc1 (stereo not shown) [Compound 46, 1-Phenylethyl N-[5-(4-cyanophenyl)-3-methyl-4-isoxazolyl]carbamate] | 3 to 10 µM
11 | Cc1noc(-c2ccc(COCc3ccoc3)cc2)c1NC(=O)OC(C)c1ccccc1Cl (stereo not shown) [Compound 85, 1-(2-Chlorophenyl)ethyl N-(5-[4-[(3-furylmethoxy)methyl]phenyl]-3-methyl-4-isoxazolyl)carbamate] | 3 to 10 µM
12 | Cc1noc(-c2ccc(COCc3ccc(F)cc3)cc2)c1NC(=O)OC(C)c1ccccc1Cl (stereo not shown) [Compound 82, 1-(2-Chlorophenyl)ethyl N-[5-(4-[[(4-fluorobenzyl)oxy]methyl]phenyl)-3-methyl-4-isoxazolyl]carbamate] | 10 to 30 µM
13 | Cc1onc(-c2cccc(Br)c2)c1NC(=O)OC(C)c1ccccc1Cl (stereo not shown) [Compound 13, 1-(2-Chlorophenyl)ethyl N-[3-(3-bromophenyl)-5-methyl-4-isoxazolyl]carbamate] | 30 µM
14 | Cc1ccsc1-c1onc(C)c1NC(=O)OC(C)c1ccccc1 (stereo not shown) [Compound 66, 1-Phenylethyl N-[3-methyl-5-(3-methyl-2-thienyl)-4-isoxazolyl]carbamate] | 10 µM
15 | Cc1onc(-c2ccccc2)c1NC(=O)OCc1ccccc1 [Compound 2, Benzyl N-(5-methyl-3-phenyl-4-isoxazolyl)carbamate] | 30 to 100 µM
16 | Cc1noc(-c2cccc(F)c2)c1NC(=O)O[C@H](C)c1ccccc1Br [Compound 33, (1R)-1-(2-Bromophenyl)ethyl N-[5-(3-fluorophenyl)-3-methyl-4-isoxazolyl]carbamate] | 3 to 10 µM
17 | Cc1onc(-c2ccccc2)c1NC(=O)O[C@H](C)c1ccccc1Cl [Compound 17, (1R)-1-(2-Chlorophenyl)ethyl N-(5-methyl-3-phenyl-4-isoxazolyl)carbamate] | 3 µM
18 | Cc1onc(-c2ccc(CO)cc2)c1NC(=O)OC(C)c1ccccc1Cl (stereo not shown) [Compound 8, 1-(2-Chlorophenyl)ethyl N-[3-[4-(hydroxymethyl)phenyl]-5-methyl-4-isoxazolyl]carbamate] | 3 to 10 µM
19 | Cc1noc(-c2cccs2)c1NC(=O)OC(C)c1ccccc1 (stereo not shown) [Compound 56, 1-Phenylethyl N-[3-methyl-5-(2-thienyl)-4-isoxazolyl]carbamate] | 3 to 10 µM
20 | Cc1noc(-c2ccc(CNCCc3ccccn3)cc2)c1NC(=O)OC(C)c1ccccc1Cl (stereo not shown) [Compound 90, 1-(2-Chlorophenyl)ethyl N-(3-methyl-5-[4-[([2-(2-pyridyl)ethyl]amino)methyl]phenyl]-4-isoxazolyl)carbamate] | 10 µM

Row | Structure (SMILES) | IC50
21 | Cc1onc(-c2ccc(OC(F)(F)F)cc2)c1NC(=O)OC(C)c1ccccc1Cl (stereo not shown) [Compound 11, 1-(2-Chlorophenyl)ethyl N-[5-methyl-3-[4-(trifluoromethoxy)phenyl]-4-isoxazolyl]carbamate] | 10 to 30 µM
22 | Cc1noc(-c2cccc([N+](=O)[O-])c2)c1NC(=O)OC(C)c1ccccc1 (stereo not shown) [Compound 58, 1-Phenylethyl N-[3-methyl-5-(3-nitrophenyl)-4-isoxazolyl]carbamate] | 10 µM
23 | CCCCCOC(=O)Nc1c(-c2ccccc2)noc1C [Compound 99, Pentyl N-(5-methyl-3-phenyl-4-isoxazolyl)carbamate] | 30 to 100 µM
24 | Cc1noc(-c2cccc(F)c2)c1NC(=O)OC(C)c1ccccc1 (stereo not shown) [Compound 29, 1-Phenylethyl N-[5-(3-fluorophenyl)-3-methyl-4-isoxazolyl]carbamate] | 10 µM
25 | CCc1noc(-c2ccc(C#N)cc2)c1NC(=O)OC(C)c1ccccc1Cl (stereo not shown) [Compound 77, 1-(2-Chlorophenyl)ethyl N-[5-(4-cyanophenyl)-3-ethyl-4-isoxazolyl]carbamate] | 1 to 3 µM
26 | Cc1noc(-c2ccc3c(c2)OCO3)c1NC(=O)OC(C)c1ccccc1Cl (stereo not shown) [Compound 52, 1-(2-Chlorophenyl)ethyl N-[5-(1,3-benzodioxol-5-yl)-3-methyl-4-isoxazolyl]carbamate] | 30 µM
27 | Cc1cccc(-c2onc(C)c2NC(=O)OC(C)c2ccccc2Cl)c1 (stereo not shown) [Compound 28, 1-(2-Chlorophenyl)ethyl N-[3-methyl-5-(3-methylphenyl)-4-isoxazolyl]carbamate] | 10 to 30 µM
28 | Cc1noc(-c2ccc(COc3ccccc3)cc2)c1NC(=O)OC(C)c1ccccc1Cl (stereo not shown) [Compound 79, 1-(2-Chlorophenyl)ethyl N-[3-methyl-5-[4-(phenoxymethyl)phenyl]-4-isoxazolyl]carbamate] | 3 µM
29 | Cc1noc(-c2ccc(OC(F)(F)F)cc2)c1NC(=O)OC(C)c1ccccc1Cl (stereo not shown) [Compound 36, 1-(2-Chlorophenyl)ethyl N-[5-[4-(trifluoromethoxy)phenyl]-3-methyl-4-isoxazolyl]carbamate] | 3 to 10 µM
30 | Cc1onc(-c2ccccc2)c1NC(=O)OC(C)c1ccccc1 (stereo not shown) [Compound 12, 1-Phenylethyl N-(5-methyl-3-phenyl-4-isoxazolyl)carbamate] | 30 to 100 µM
31 | Cc1onc(-c2ccccc2)c1NC(=O)O[C@@H](C)c1ccccc1 [Compound 10, (1S)-1-Phenylethyl N-(5-methyl-3-phenyl-4-isoxazolyl)carbamate] | ≥ 100 µM
32 | Cc1noc(-c2ccc(Br)o2)c1NC(=O)OC(C)c1ccccc1Cl (stereo not shown) [Compound 73, 1-(2-Chlorophenyl)ethyl N-[5-(5-bromo-2-furyl)-3-methyl-4-isoxazolyl]carbamate] | 1 to 3 µM
33 | Cc1noc(-c2ccc(CCl)cc2)c1NC(=O)OC(C)c1ccccc1F (stereo not shown) [Compound 155, 1-(2-Fluorophenyl)ethyl N-{5-[4-(chloromethyl)phenyl]-3-methyl-4-isoxazolyl}carbamate] | 3 to 10 µM
34 | Cc1onc(-c2cccc(C(F)(F)F)c2)c1NC(=O)OC(C)c1ccccc1Cl (stereo not shown) [Compound 15, 1-(2-Chlorophenyl)ethyl N-[5-methyl-3-[3-(trifluoromethyl)phenyl]-4-isoxazolyl]carbamate] | 30 µM
35 | Cc1noc(-c2ccc(CNCc3ccco3)cc2)c1NC(=O)OC(C)c1ccccc1Cl (stereo not shown) [Compound 93, 1-(2-Chlorophenyl)ethyl N-[5-(4-[[(2-furylmethyl)amino]methyl]phenyl)-3-methyl-4-isoxazolyl]carbamate] | 3 to 10 µM
36 | Cc1noc(-c2ccccc2)c1NC(=O)OCc1ccccc1 [Compound 7, Benzyl N-(3-methyl-5-phenyl-4-isoxazolyl)carbamate] | 30 µM
37 | Cc1ccc(-c2onc(C)c2NC(=O)OC(C)c2ccccc2F)cc1 (stereo not shown) [Compound 49, 1-(2-Fluorophenyl)ethyl N-[3-methyl-5-(4-methylphenyl)-4-isoxazolyl]carbamate] | 10 to 30 µM
38 | Cc1noc(-c2ccc(Cl)nc2)c1NC(=O)OC(C)c1ccccc1Cl (stereo not shown) [Compound 63, 1-(2-Chlorophenyl)ethyl N-[5-(6-chloro-3-pyridyl)-3-methyl-4-isoxazolyl]carbamate] | 30 µM
39 | Cc1noc(-c2ccc(CN3CC(C)OC(C)C3)cc2)c1NC(=O)OC(C)c1ccccc1Cl (stereo not shown) [Compound 89, 1-(2-Chlorophenyl)ethyl N-(5-[4-[(2,6-dimethylmorpholino)methyl]phenyl]-3-methyl-4-isoxazolyl)carbamate] | 10 to 30 µM
40 | Cc1ccc(-c2onc(C)c2NC(=O)O[C@H](C)c2ccccc2Br)cc1 [Compound 48, (1R)-1-(2-Bromophenyl)ethyl N-[3-methyl-5-(4-methylphenyl)-4-isoxazolyl]carbamate] | 3 to 10 µM
